The source of these data is publication PMC6337383, “Discovery of Potent Inhibitors for the Large Neutral Amino Acid Transporter 1 (LAT1) by Structure-Based Methods” (International Journal of Molecular Sciences, 2018).

In general, inhibition refers to the percentage by which the read-out fell short of the control. What is called IC50 is the midpoint of a concentration-inhibition curve.

For the assay, the target named is T1, recombinant human LAT1 (Homo sapiens, UniProt Q01650).
T1 construct: made in house; host or cells: E. coli
T1 sequence (Q01650 whole entry): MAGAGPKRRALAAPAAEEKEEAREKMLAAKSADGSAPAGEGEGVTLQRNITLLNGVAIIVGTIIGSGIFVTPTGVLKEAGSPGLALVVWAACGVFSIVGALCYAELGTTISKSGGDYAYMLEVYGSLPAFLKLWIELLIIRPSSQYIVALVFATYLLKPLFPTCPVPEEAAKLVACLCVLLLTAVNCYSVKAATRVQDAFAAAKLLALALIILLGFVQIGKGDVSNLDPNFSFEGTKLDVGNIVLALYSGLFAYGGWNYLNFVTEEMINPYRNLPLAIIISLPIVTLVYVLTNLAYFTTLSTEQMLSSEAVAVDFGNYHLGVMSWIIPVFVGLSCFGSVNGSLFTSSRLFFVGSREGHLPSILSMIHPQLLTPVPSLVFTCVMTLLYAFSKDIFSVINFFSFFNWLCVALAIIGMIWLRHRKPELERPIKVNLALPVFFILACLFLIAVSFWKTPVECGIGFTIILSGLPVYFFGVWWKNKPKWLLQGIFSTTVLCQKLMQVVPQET
Description: Inhibition of LAT1 mediated [3H]-His transport in proteoliposomes reconstituted with recombinant purified human LAT1. Also on record: Dose-response analysis, Mean / Dose-response analysis, single experiments: unit not given here. Type of assay: biochemical. The settings on record: for inhibition at 100 µM: 100 µM compound; for LAT1 inhibition, activity in words: 100 μM compound, [3H]-His uptake in proteoliposomes; for % Residual Activity: 100 µM concentration, n = 3, Table S6; for IC50: 5 μM [3H]-His, proteoliposomes containing 10 mM His, mean ± S.D., three experiments; for Dose-response analysis, single experiments: Exp. 1, Exp. 2, Exp. 3 in this order; for Dose-response analysis, Mean: mean of Exp. 1-3; for times more potent than 1: ratio of IC50 values versus 1 (BCH). As for the experimental part:
All 30 compounds were evaluated for their potency to inhibit LAT1 mediated histidine transport in proteoliposomes reconstituted with recombinant purified human LAT1 (see Methods). […]
Human LAT1 was over-expressed in E. coli and was purified as previously described. In brief, solubilized cell lysate was centrifuged (12,000× g, 10 min, 4 °C); supernatant was applied on a His-Trap HP column (5 mL Ni Sepharose) connected to ÄKTA start system. The column was equilibrated with 10 mL buffer (20 mM Tris HCl pH 8.0, 10% glycerol, 200 mM NaCl, 0.1% sarkosyl) prior to supernatant application. The column was washed with 10 mL buffer (20 mM Tris HCl pH 8.0, 10% glycerol, 200 mM NaCl, 0.05% DDM, and 2 mM DTE) and the protein was eluted with the same buffer plus 400 mM imidazole. Purified protein was desalted, in order to remove imidazole, using a PD-10 column in a buffer containing 20 mM Tris HCl pH 8.0, 10% glycerol, 0.05% DDM and 10 mM DTE.
The purified human LAT1 was reconstituted by detergent removal approach using the batch-wise method, as previously described. In brief, the initial mixture contained: 4 μg of purified protein, 100 μL of 10% C12E8, 100 μL of 10% egg yolk phospholipids (w/v) in the form of liposomes that were prepared as previously described, 20 mM Tris HCl pH 7.5, and 10 mM L-His in a final volume of 700 μL. This mixture was incubated with 0.5 g of Amberlite XAD-4 for 90 min at 23 °C, 1200 rpm to retain detergent.
To perform transport assays, the external substrate was removed by gel filtration chromatography: 600 μL of proteoliposomes were passed through a Sephadex G-75 column (0.7 cm diameter × 15 cm height) pre-equilibrated with 20 mM Tris HCl pH 7.5 and a concentration of sucrose to balance internal osmolarity. Transport was started adding 5 μM [^3H]-His to proteoliposomes and stopped after 30 min according to the stop inhibitor method, as previously described. In brief, in controls 1.5 µM HgCl2 was added at time zero and radioactivity was subtracted to samples for calculating net transport. After stopping the transport reaction, 100 μL of proteoliposomes was subjected to gel filtration chromatography using a Sephadex G-75 column (0.6 cm diameter × 8 cm height), to separate the external from the internal radioactivity. Proteoliposomes were eluted with 1 mL 50 mM NaCl in 4 mL scintillation mixture and counted. […] Protein concentration was estimated by Chemidoc imaging system1 [104] to calculate the human LAT1 specific activity.

Structures are written as SMILES. Several values for one entry are separate records, joined by “and”; a condition that tells them apart may be missing. Identical values can stand only once. Entries after “also recorded” stand apart in the source; their conditions may differ.

As to `NC(Cc1cccc(OCc2ccccc2)c1)C(=O)O` (stereo not shown) [Compound 35], the inhibition at 100 µM is 80 to 90%; the “LAT1 inhibition, activity in words” value is given as “highly active”; the “% Residual Activity” value stood at 11.78%.

For `Cc1cc(OC(C)(C)C(=O)NCc2n[nH]c(=O)[nH]2)cc(C)c1Cl` [Compound 20], the “% Residual Activity” value was 90.07%.

For `N[C@@H](Cc1ccc(OCc2c(Cl)cccc2Cl)cc1)C(=O)O` [Compound 38], the inhibition at 100 µM lay in the range of 80 to 90% and the “% Residual Activity” value amounted to 13.17%.

In the case of `CCOc1ccc(Cl)cc1-c1cccc(OCC(N)=O)c1` [Compound 18], the “% Residual Activity” value is 90.14%.

Regarding `N[C@@H](Cc1c[nH]c2ccc(OCc3ccccc3)cc12)C(=O)O` [Compound 42], the concentration for half-maximal inhibition (IC50) came to 1480 ± 270 nM; the inhibition at 100 µM is > 90%; the “LAT1 inhibition, activity in words” value is “almost complete inhibition”; the “% Residual Activity” value was found to be 7.83%. The “times more potent than 1” value is given as “~four times more potent”. For the same compound, where the note is “0.1 [] M compound”, the “Dose-response analysis, single experiments” value was 91.01 and 109.97 and 91.55; the “Dose-response analysis, Mean” value is listed as 97.51. Besides, for the setting “0.2 [] M compound”, the “Dose-response analysis, single experiments” value was 77.34 and 82.24 and 73.67; the “Dose-response analysis, Mean” value is listed as 77.75. Moreover, where the note is “0.5 [] M compound”, the “Dose-response analysis, single experiments” value was 72.30 and 76.32 and 64.01; the “Dose-response analysis, Mean” value amounted to 70.88. Besides, where the note is “1 [] M compound”, the “Dose-response analysis, single experiments” value is 64.39 and 51.09 and 41.55; the “Dose-response analysis, Mean” value is reported as 52.34. In addition, under “2.5 [] M compound”, the “Dose-response analysis, single experiments” value is 42.45 and 36.45 and 24.15; the “Dose-response analysis, Mean” value came to 34.35. Moreover, the “Dose-response analysis, Mean” value (5 [] M compound) worked out at 29.11. For the setting “10 [] M compound”, the “Dose-response analysis, Mean” value was 18.24. The “Dose-response analysis, Mean” value (25 [] M compound) came out at 21.07. Besides, for the setting “50 [] M compound”, the “Dose-response analysis, single experiments” value was 12.95 and 13.71 and 13.30; the “Dose-response analysis, Mean” value was determined as 13.32. Further, the “Dose-response analysis, Mean” value (100 [] M compound) stood at 14.52.

Turning to `NC1(C(=O)O)CCCC1Cc1ccc(Cl)cc1` (stereo not shown) [Compound 32], the “LAT1 inhibition, activity in words” value was “moderately active; also recorded: modest affinity” and the “% Residual Activity” value is listed as 53.11%.

Take `Cc1sc2ccccc2c1CN1CCCn2nc(C(O)CO)cc2C1` (stereo not shown) [Compound 21]: the “% Residual Activity” value worked out at 85.14%.

Consider `C=CCN(Cc1cccc(OCC(N)=O)c1)Cc1ccccc1C` [Compound 15], for which the “% Residual Activity” value worked out at 92.21%.

In the case of `O=C(c1ccc2[nH]c(CO)nc2c1)N(Cc1ccco1)Cc1cccs1` [Compound 22], the “% Residual Activity” value worked out at 93.36%.

With `O=C(O)[C@@H]1C[C@H](n2cc(-c3ccccn3)nn2)CN1` [Compound 25], the “% Residual Activity” value amounted to 94.12%.

As to `CC(C)COc1ccc(C(N)CC(=O)O)cc1` (stereo not shown) [Compound 27], the “LAT1 inhibition, activity in words” value is “slightly active” and the “% Residual Activity” value was 67.96%.

As to `N[C@@H](CCc1cc(Cl)cc(Cl)c1)C(=O)O` [Compound 36], the IC50 worked out at 640 ± 120 nM; the inhibition at 100 µM was > 90%; the “LAT1 inhibition, activity in words” value was “highly active; also recorded: almost complete inhibition”; the “% Residual Activity” value came out at 0%. The “times more potent than 1” value is listed as ~ 10. In addition, where the note is “0.1 [] M compound”, the “Dose-response analysis, single experiments” value was 81.30 and 100.31 and 62.08; the “Dose-response analysis, Mean” value turned out to be 81.23. The “Dose-response analysis, Mean” value (0.2 [] M compound) is 82.32. Further, the “Dose-response analysis, Mean” value (0.5 [] M compound) came to 45.71. For the same compound, where the note is “1 [] M compound”, the “Dose-response analysis, single experiments” value was 38.13 and 55.14 and 40.82; the “Dose-response analysis, Mean” value is reported as 44.70. Under “2.5 [] M compound”, the “Dose-response analysis, Mean” value was found to be 28.38. Further, the “Dose-response analysis, Mean” value (5 [] M compound) amounted to 5.92. Also, under “10 [] M compound”, the “Dose-response analysis, single experiments” value was determined as 0.00 and the “Dose-response analysis, Mean” value amounted to 0.00. Further, where the note is “25 [] M compound”, the “Dose-response analysis, Mean” value stood at 13.53. The “Dose-response analysis, Mean” value (50 [] M compound) amounted to 2.08. The “Dose-response analysis, Mean” value (100 [] M compound) came to 14.15.

Turning to `N[C@@H](Cc1cccc(C(F)(F)F)c1)C(=O)O` [Compound 41], the inhibition at 100 µM was in the range of 80 to 90% and the “% Residual Activity” value is 15.21%.

In the case of `CN(Cc1cc(Br)cc(Br)c1N)C1CCCCC1` [Compound 29], the “% Residual Activity” value amounted to 98.42%.

Consider `CN1CCCC(n2nc(Cc3ccc(Cl)cc3)c3ccccc3c2=O)CC1` (stereo not shown) [Compound 30], for which the “% Residual Activity” value is 94.08%.

`NC(Cc1cn(-c2ccccc2)nn1)C(=O)O` (stereo not shown) [Compound 34]: the “LAT1 inhibition, activity in words” value was “slightly active” and the “% Residual Activity” value came to 77.12%.

For `N[C@@H](Cc1cn(Cc2ccccc2)cn1)C(=O)O` [Compound 40], the inhibition at 100 µM fell in the range of 80 to 90% and the “% Residual Activity” value is 11.34%.

On to `N[C@@H](CSC(c1ccccc1)(c1ccccc1)c1ccccc1)C(=O)O` [Compound 39], for which the inhibition at 100 µM was 80 to 90% and the “% Residual Activity” value was determined as 11.76%.

On to `NC(CSCc1cccc2ccccc12)C(=O)O` (stereo not shown) [Compound 33], for which the inhibition at 100 µM was in the range of 80 to 90%; the “LAT1 inhibition, activity in words” value is on record as “highly active”; the “% Residual Activity” value stood at 17.86%.

Consider `N#Cc1c(-c2ccccc2-c2ccco2)cc(-c2cc(C(=O)O)[nH]n2)nc1N` [Compound 13], for which the “% Residual Activity” value worked out at 74.23%.

Consider `CN(Cc1ccon1)C(C(=O)O)c1ccc(-n2cccn2)cc1` (stereo not shown) [Compound 23], for which the “% Residual Activity” value came out at 96.22%.

As to `CCCCN(Cc1ccsc1)C(=O)c1ccc(NS(=O)(=O)CC)cc1` [Compound 17], the “% Residual Activity” value came to 94.75%.

`Cc1nnc(-c2ccccc2-c2ccc(CNS(C)(=O)=O)cc2)o1` [Compound 14]: the “% Residual Activity” value was 95.87%.

`CCOc1ccc(Cl)cc1C(C(=O)O)N(C)Cc1cnccn1` (stereo not shown) [Compound 24]: the “% Residual Activity” value worked out at 100.72%.

For `Cc1cccnc1CN(C)C(C(=O)O)c1ccc(-n2cccn2)cc1` (stereo not shown) [Compound 26], the “% Residual Activity” value worked out at 89.37%.

On to `CCn1cnnc1C(C)NC(=O)c1ccc2[nH]c(=O)c(=O)[nH]c2c1` (stereo not shown) [Compound 16], for which the “% Residual Activity” value is 95.1%.

In the case of `CCOc1ccccc1CN(Cc1cc(O)c(OC)cn1)C1CC1` [Compound 19], the “% Residual Activity” value was 93.06%.

As for `O=C(O)CNC(=O)c1nc(Cl)c2ccccc2c1O` [Compound 31], the “% Residual Activity” value was 91.83%.
